According to patent US8410302B2, “Methoxyimino compounds and fungicide composition comprising same” (Kyung Nong Corporation, priority 2007, dated 2013):
Like-named read-outs stand apart in the source and are kept apart here.

Key:
[1] = test system: Pyricularia oryzae Carvara KA301; test: whole plant or invertebrate; assay type: in vivo; settings: for pest or weed control at 2 ppm / pest or weed control at 10 ppm / pest or weed control at 50 ppm / pest or weed control at 100 ppm: Pyricularia oryzae, read-out: RCB control value (C.V.); for RCB control value (C.V.): rice blast
Phytophthora infestans = test: whole plant or invertebrate; assay type: in vivo; settings: for pest or weed control at 2 ppm / pest or weed control at 10 ppm / pest or weed control at 50 ppm / pest or weed control at 100 ppm: Phytophthora infestans, in Solanum lycopersicum, read-out: TLB control value (C.V.); for TLB control value (C.V.): tomato late blight
Rhizoctonia solani AG-1 = test: Fungicidal activity against rice sheath blight (RSB) disease, control value; settings: for pest or weed control at 2 ppm / pest or weed control at 10 ppm / pest or weed control at 50 ppm / pest or weed control at 100 ppm: Rhizoctonia solani, AG1, in Oryza sativa, read-out: RSB control value (C.V.)
Erysiphae graminis = test: Fungicidal activity against barley powdery mildew (BPM) disease, control value; assay type: in vivo; settings: for pest or weed control at 2 ppm / pest or weed control at 10 ppm / pest or weed control at 50 ppm / pest or weed control at 100 ppm: 168 h, read-out: BPM control value (C.V.)
Botrytis cinerae = test: Fungicidal activity against cucumber gray mold rot (CGM) disease, control value; assay type: in vivo
Puccinia recondita = test: Fungicidal activity against wheat leaf rust (WLR) disease, control value; assay type: in vivo; settings: for pest or weed control at 2 ppm / pest or weed control at 10 ppm / pest or weed control at 50 ppm / pest or weed control at 100 ppm: read-out: WLR control value (C.V.)
[2] = Botrytis, 100 ppm, read-out: CGM control value (C.V.)
[3] = Hordeum vulgare, barley powdery mildew

Work on `CCOc1cc(C=C(Cl)Cl)ccc1OCc1ccccc1/C(=N\OC)C(=O)OC` [Example 59, methyl-(E)-2-(2-((4-(2,2-dichlorovinyl)-2-ethoxyphenoxy)methyl)phenyl)-2-methoxyiminoacetate] yielded a pest or weed control at 2 ppm [1] of 97%, a pest or weed control at 10 ppm [1] of 100% and a pest or weed control at 50 ppm [1] of 100%. For the same compound, the pest or weed control at 100 ppm [1] was 100%, the pest or weed control at 2 ppm (Phytophthora infestans) was 98% and the pest or weed control at 10 ppm (Phytophthora infestans) was 100%. For the same compound, the pest or weed control at 50 ppm (Phytophthora infestans) was 100%, the pest or weed control at 100 ppm (Phytophthora infestans) was 100% and the pest or weed control at 2 ppm (Rhizoctonia solani AG-1) was 98%. It also gave a pest or weed control at 10 ppm (Rhizoctonia solani AG-1) of 100%, a pest or weed control at 50 ppm (Rhizoctonia solani AG-1) of 100% and a pest or weed control at 100 ppm (Rhizoctonia solani AG-1) of 100%. The pest or weed control at 2 ppm (Erysiphae graminis) was 98%, the pest or weed control at 10 ppm (Erysiphae graminis) was 100% and the pest or weed control at 50 ppm (Erysiphae graminis) was 100%. For the same compound, the pest or weed control at 100 ppm (Erysiphae graminis; 100 ppm) was 100%, the pest or weed control at 100 ppm (Botrytis cinerae; [2]) was 65% and the pest or weed control at 2 ppm (Puccinia recondita; Puccinia recondita) was 90%. For the same compound, the pest or weed control at 10 ppm (Puccinia recondita; Puccinia recondita) was 100%, the pest or weed control at 50 ppm (Puccinia recondita; Puccinia recondita) was 100% and the pest or weed control at 100 ppm (Puccinia recondita; Puccinia recondita, 100 ppm) was 100%.
Compound `CCOc1cc(C=C(Br)Br)ccc1OCc1ccccc1/C(=N\OC)C(=O)NC` [Example 84, (E)-2-(2-((4-(2,2-dibromovinyl)-2-ethoxyphenoxy)methyl)phenyl)-2-methoxyimino-N-methylacetamide] has a pest or weed control at 2 ppm [1] of 30%, a pest or weed control at 10 ppm [1] of 90% and a pest or weed control at 50 ppm [1] of 100%. The pest or weed control at 100 ppm [1] was 100%, the pest or weed control at 2 ppm (Phytophthora infestans) was 70% and the pest or weed control at 10 ppm (Phytophthora infestans) was 90%. For the same compound, the pest or weed control at 50 ppm (Phytophthora infestans) was 98%, the pest or weed control at 100 ppm (Phytophthora infestans) was 100% and the pest or weed control at 2 ppm (Rhizoctonia solani AG-1) was 55%. It also gave a pest or weed control at 10 ppm (Rhizoctonia solani AG-1) of 98%, a pest or weed control at 50 ppm (Rhizoctonia solani AG-1) of 100% and a pest or weed control at 100 ppm (Rhizoctonia solani AG-1) of 100%. The pest or weed control at 2 ppm (Erysiphae graminis) was 90%, the pest or weed control at 10 ppm (Erysiphae graminis) was 100% and the pest or weed control at 50 ppm (Erysiphae graminis) was 100%. For the same compound, the pest or weed control at 100 ppm (Erysiphae graminis; 100 ppm) was 100%, the pest or weed control at 100 ppm (Botrytis cinerae; [2]) was 70% and the pest or weed control at 2 ppm (Puccinia recondita; Puccinia recondita) was 95%. The pest or weed control at 10 ppm (Puccinia recondita; Puccinia recondita) was 100%, the pest or weed control at 50 ppm (Puccinia recondita; Puccinia recondita) was 100% and the pest or weed control at 100 ppm (Puccinia recondita; Puccinia recondita, 100 ppm) was 100%.
In the case of `CNC(=O)/C(=N/OC)c1ccccc1COc1cccc(C=C(Br)Br)c1Cl` [Example 68, (E)-2-(2-((3-(2,2-dibromovinyl)-2-chlorophenoxy)methyl)phenyl)-2-methoxyimino-N-methylacetamide], the pest or weed control at 2 ppm [1] is reported as 100%, the pest or weed control at 10 ppm [1] is reported as 100% and the pest or weed control at 50 ppm [1] is reported as 100%. The pest or weed control at 100 ppm [1] was 100%, the pest or weed control at 2 ppm (Phytophthora infestans) was 100% and the pest or weed control at 10 ppm (Phytophthora infestans) was 100%. The pest or weed control at 50 ppm (Phytophthora infestans) was 100%, the pest or weed control at 100 ppm (Phytophthora infestans) was 100% and the pest or weed control at 2 ppm (Rhizoctonia solani AG-1) was 100%. It also gave a pest or weed control at 10 ppm (Rhizoctonia solani AG-1) of 100%, a pest or weed control at 50 ppm (Rhizoctonia solani AG-1) of 100% and a pest or weed control at 100 ppm (Rhizoctonia solani AG-1) of 100%. It also gave a pest or weed control at 2 ppm (Erysiphae graminis) of 100%, a pest or weed control at 10 ppm (Erysiphae graminis) of 100% and a pest or weed control at 50 ppm (Erysiphae graminis) of 100%. For the same compound, the pest or weed control at 100 ppm (Erysiphae graminis; 100 ppm) was 100%, the pest or weed control at 50 ppm (Botrytis cinerae; Botrytis, 50 ppm, read-out: CGM control value (C.V.)) was 20% and the pest or weed control at 100 ppm (Botrytis cinerae; [2]) was 70%. For the same compound, the pest or weed control at 2 ppm (Puccinia recondita; Puccinia recondita) was 100%, the pest or weed control at 10 ppm (Puccinia recondita; Puccinia recondita) was 100% and the pest or weed control at 50 ppm (Puccinia recondita; Puccinia recondita) was 100%. It also gave a pest or weed control at 100 ppm (Puccinia recondita; Puccinia recondita, 100 ppm) of 100%.
For `CNC(=O)/C(=N/OC)c1ccccc1COc1ccc(C=C(F)Cl)cc1` [Example 14, (2E)-2-(2-((4-(2-chloro-2-difluorovinyl)phenoxy)methyl)phenyl)-2-methoxyimino-N-methylacetamide], the “RCB control value (C.V.)” value ([1]; 50 ppm) was 90%, the “RCB control value (C.V.)” value ([1]; 100 ppm) was 95% and the “TLB control value (C.V.)” value (Phytophthora infestans; 50 ppm) was 35%. The “TLB control value (C.V.)” value (Phytophthora infestans; 100 ppm) was 98%, the “RSB control value (C.V.)” value (Rhizoctonia solani AG-1; 100 ppm, rice sheath blight) was 15% and the “BPM control value (C.V.)” value (Erysiphae graminis; 100 ppm, barley powdery mildew) was 60%. For the same compound, the “CGM control value (C.V.)” value (Botrytis cinerae; 100 ppm, cucumber gray mold rot) was 40% and the “WLR control value (C.V.)” value (Puccinia recondita; 100 ppm, wheat leaf rust) was 72%.
In the case of `CO/N=C(/C(=O)OC)c1ccccc1COc1ccc(C=C(Br)Br)cc1Br` [Example 77, methyl-(E)-2-(2-((2-bromo-4-(2,2-dibromovinyl)phenoxy)methyl)phenyl)-2-methoxyiminoacetate], the pest or weed control at 2 ppm [1] is reported as 30%, the pest or weed control at 10 ppm [1] is reported as 90% and the pest or weed control at 50 ppm [1] is reported as 100%. The pest or weed control at 100 ppm [1] was 100%, the pest or weed control at 2 ppm (Phytophthora infestans) was 70% and the pest or weed control at 10 ppm (Phytophthora infestans) was 90%. It also gave a pest or weed control at 50 ppm (Phytophthora infestans) of 98%, a pest or weed control at 100 ppm (Phytophthora infestans) of 100% and a pest or weed control at 2 ppm (Rhizoctonia solani AG-1) of 65%. The pest or weed control at 10 ppm (Rhizoctonia solani AG-1) was 98%, the pest or weed control at 50 ppm (Rhizoctonia solani AG-1) was 100% and the pest or weed control at 100 ppm (Rhizoctonia solani AG-1) was 100%. The pest or weed control at 2 ppm (Erysiphae graminis) was 90%, the pest or weed control at 10 ppm (Erysiphae graminis) was 100% and the pest or weed control at 50 ppm (Erysiphae graminis) was 100%. The pest or weed control at 100 ppm (Erysiphae graminis; 100 ppm) was 100%, the pest or weed control at 100 ppm (Botrytis cinerae; [2]) was 70% and the pest or weed control at 2 ppm (Puccinia recondita; Puccinia recondita) was 95%. For the same compound, the pest or weed control at 10 ppm (Puccinia recondita; Puccinia recondita) was 100%, the pest or weed control at 50 ppm (Puccinia recondita; Puccinia recondita) was 100% and the pest or weed control at 100 ppm (Puccinia recondita; Puccinia recondita, 100 ppm) was 100%.
`CO/N=C(/C(=O)OC)c1ccccc1COc1cc(Br)ccc1C=C(Br)Br` [Example 85, methyl-(E)-2-(2-((5-bromo-2-(2,2-dibromovinyl)phenoxy)methyl)phenyl)-2-methoxyiminoacetate] was tested, and the pest or weed control at 2 ppm [1] was 70%, the pest or weed control at 10 ppm [1] was 90% and the pest or weed control at 50 ppm [1] was 100%. For the same compound, the pest or weed control at 100 ppm [1] was 100%, the pest or weed control at 10 ppm (Phytophthora infestans) was 20% and the pest or weed control at 50 ppm (Phytophthora infestans) was 100%. It also gave a pest or weed control at 100 ppm (Phytophthora infestans) of 100%, a pest or weed control at 2 ppm (Rhizoctonia solani AG-1) of 60% and a pest or weed control at 10 ppm (Rhizoctonia solani AG-1) of 85%. The pest or weed control at 50 ppm (Rhizoctonia solani AG-1) was 96%, the pest or weed control at 100 ppm (Rhizoctonia solani AG-1) was 99% and the pest or weed control at 2 ppm (Erysiphae graminis) was 25%. For the same compound, the pest or weed control at 10 ppm (Erysiphae graminis) was 70%, the pest or weed control at 50 ppm (Erysiphae graminis) was 97% and the pest or weed control at 100 ppm (Erysiphae graminis; 100 ppm) was 100%. The pest or weed control at 100 ppm (Botrytis cinerae; [2]) was 35%, the pest or weed control at 2 ppm (Puccinia recondita; Puccinia recondita) was 80% and the pest or weed control at 10 ppm (Puccinia recondita; Puccinia recondita) was 99%. The pest or weed control at 50 ppm (Puccinia recondita; Puccinia recondita) was 100% and the pest or weed control at 100 ppm (Puccinia recondita; Puccinia recondita, 100 ppm) was 100%.
With `CO/N=C(/C(=O)OC)c1ccccc1COc1ccc(C)cc1C=C(Cl)Cl` [Example 45, methyl-(E)-2-(2-((2-(2,2-dichlorovinyl)-4-methylphenoxy)methyl)phenyl)-2-methoxyiminoacetate] the pest or weed control at 2 ppm [1] was 100%, the pest or weed control at 10 ppm [1] was 100% and the pest or weed control at 50 ppm [1] was 100%. It also gave a pest or weed control at 100 ppm [1] of 100%, a pest or weed control at 2 ppm (Phytophthora infestans) of 92% and a pest or weed control at 10 ppm (Phytophthora infestans) of 98%. It also gave a pest or weed control at 50 ppm (Phytophthora infestans) of 100%, a pest or weed control at 100 ppm (Phytophthora infestans) of 100% and a pest or weed control at 2 ppm (Rhizoctonia solani AG-1) of 100%. It also gave a pest or weed control at 10 ppm (Rhizoctonia solani AG-1) of 100%, a pest or weed control at 50 ppm (Rhizoctonia solani AG-1) of 100% and a pest or weed control at 100 ppm (Rhizoctonia solani AG-1) of 100%. For the same compound, the pest or weed control at 2 ppm (Erysiphae graminis; [3]) was 100%, the pest or weed control at 10 ppm (Erysiphae graminis; [3]) was 100% and the pest or weed control at 50 ppm (Erysiphae graminis; [3]) was 100%. It also gave a pest or weed control at 100 ppm (Erysiphae graminis; Hordeum vulgare, 100 ppm, barley powdery mildew) of 100%, a pest or weed control at 100 ppm (Botrytis cinerae; Botrytis, 100 ppm, cucumber gray mold rot, read-out: CGM control value (C.V.)) of 35% and a pest or weed control at 2 ppm (Puccinia recondita; wheat leaf rust) of 100%. It also gave a pest or weed control at 10 ppm (Puccinia recondita; wheat leaf rust) of 100%, a pest or weed control at 50 ppm (Puccinia recondita; wheat leaf rust) of 100% and a pest or weed control at 100 ppm (Puccinia recondita; 100 ppm, wheat leaf rust) of 100%.
